Where two headings read alike, the source gives them in different places.

Data set [1] deals with PC-3 prostate adenocarcinoma cells. Description: MTT cell viability assay, PC-3. Particulars: 72 h; for IC50 / viability at 10 µM: Homo sapiens; for viability at 10 µM: read-out: cell viability percentage in relation to control, PC-3; for SI PC-3 (selectivity index versus NHDF): PC-3 versus NHDF. Here is the method:
(§1) To evaluate the anticancer potential of monomethine cyanine dyes 1–12, a cell proliferation study was conducted using the 3-(4,5-dimethylthiazol-2-yl)-2,5-diphenyltetrazolium bromide (MTT) assay. For this preliminary evaluation, a concentration of 10 µM for each dye was tested, with the well-established chemotherapy agent 5-fluorouracil (5-FU) serving as a positive control. The assay included normal human dermal fibroblasts (NHDF) as non-tumor cells, alongside tumor cell lines from colorectal (Caco-2), prostate (PC-3), and breast (MCF-7) adenocarcinomas.
(§2) The cell lines used in this study (Caco-2, MCF-7, PC-3, and NHDF) were obtained from the American Type Culture Collection (ATCC, Manassas, VA, USA) and cultured in 75 cm^2 culture flasks at 37 °C in a humidified atmosphere with 5% CO2 in a LEEC Culture Safe Precision CO2 Incubator. PC-3 cells were grown in Roswell Park Memorial Institute (RPMI) medium supplemented with 10% of inactivated Fetal Bovine Serum (FBS) and 1% of an antibiotic mixture (Sp; 10,000 U/mL of penicillin G and […] of streptomycin). MCF-7 and Caco-2 cell lines were both cultured using Dulbecco’s Modified Eagle Medium (DMEM). However, the medium for MCF-7 cells was complemented with 10% of inactivated FBS and 1% of antibiotic/antimycotic mixture (Ab; 10,000 U/mL of penicillin G, […] of streptomycin and 25 µg/mL of amphotericin B), and the medium for Caco-2 cells was supplemented with 20% of inactivated FBS and 1% of Sp. Finally, RPMI medium supplemented with 10% FBS, 2 mM of L-glutamine, 10 mM of 4-(2-hydroxyethyl)-1-piperazineethanesulfonic acid (HEPES), 1 mM of sodium pyruvate, and 1% of Ab was used to culture NHDF cells. The culture media were renewed every two to three days until near confluence was achieved. Then, cells were detached using a solution of 0.125 g/L of trypsin and 0.02 g/L of ethylenediaminetetracetic acid (EDTA), counted by the trypan blue method, resuspended, and adequately seeded to continue the culture in 75 cm^2 flasks or for the experiments described below. All manipulations were performed in a Labculture Class II A2 Biological Safety Cabinet.
(§3) After trypsinization, cells were seeded in 96-well culture plates (100 µL; 2 × 10^4 cells/mL), and after 48 h (for adherence), they were incubated with the compounds under study in the absence of light for a duration of 72 h. Then, the medium was removed, and fresh incomplete culture medium (without FBS and Ab or Sp) and MTT solution [5 mg/mL in phosphate buffer saline (PBS)] were added to each well, followed by 4 h of incubation. After this, the medium containing MTT was removed and DMSO was added to dissolve formazan crystals. The absorbance of each well at 570 nm was determined using a microplate spectrophotometer Bio-Rad (Hercules, CA, USA) xMark. Untreated cells were considered the negative control, and 5-FU, a clinically used drug, was considered the positive control. For data analysis, the relative cell proliferation relative to the negative control cells was calculated. For each cell viability study, at least two independent assays in quadruplicate were performed. Increasing concentrations of the compounds between 0.001 and 100 μM were used to determine the IC50 values.
For orientation: Tetrazolium dyes change colour on reduction, which living cells bring about.

Data set [2] is described as follows: MTT cell viability assay, NHDF. Format: cell-based, human. The conditions noted are these: human, normal human dermal fibroblasts (NHDF); 10 µM, 72 h, mean ± SD; read-out: cell viability percentage in relation to control, NHDF.
Protocol: (§4) The cell lines used in this study (Caco-2, MCF-7, PC-3, and NHDF) were obtained from the American Type Culture Collection (ATCC, Manassas, VA, USA) and cultured in 75 cm^2 culture flasks at 37 °C in a humidified atmosphere with 5% CO2 in a LEEC Culture Safe Precision CO2 Incubator. PC-3 cells were grown in Roswell Park Memorial Institute (RPMI) medium supplemented with 10% of inactivated Fetal Bovine Serum (FBS) and 1% of an antibiotic mixture (Sp; 10,000 U/mL of penicillin G and 100 mg/mL of streptomycin). MCF-7 and Caco-2 cell lines were both cultured using Dulbecco’s Modified Eagle Medium (DMEM). However, the medium for MCF-7 cells was complemented with 10% of inactivated FBS and 1% of antibiotic/antimycotic mixture (Ab; 10,000 U/mL of penicillin G, 100 mg/mL of streptomycin and 25 µg/mL of amphotericin B), and the medium for Caco-2 cells was supplemented with 20% of inactivated FBS and 1% of Sp. Finally, RPMI medium supplemented with 10% FBS, 2 mM of L-glutamine, 10 mM of 4-(2-hydroxyethyl)-1-piperazineethanesulfonic acid (HEPES), 1 mM of sodium pyruvate, and 1% of Ab was used to culture NHDF cells. The culture media were renewed every two to three days until near confluence was achieved. Then, cells were detached using a solution of 0.125 g/L of trypsin and 0.02 g/L of ethylenediaminetetracetic acid (EDTA), counted by the trypan blue method, resuspended, and adequately seeded to continue the culture in 75 cm^2 flasks or for the experiments described below. All manipulations were performed in a Labculture Class II A2 Biological Safety Cabinet.
Data set [3] relates to normal human dermal fibroblasts (NHDF). Description: MTT cell viability assay, NHDF. The conditions noted are these: Homo sapiens; NHDF, 72 h incubation, MTT, absence of light; read-out: IC50 NHDF. Format: cell-based.
Protocol: as §4
A short description of data set [4]: MTT cell viability assay, Caco-2. The conditions noted are these: human. The procedure:
as §1, §2, §3

Data set [5] deals with Caco-2 colorectal adenocarcinoma cells. As to the kind of experiment: MTT cell viability assay, Caco-2. Particulars: for IC50 / viability at 10 µM: Homo sapiens, Caco-2, 72 h; for IC50: read-out: IC50 Caco-2; for viability at 10 µM: read-out: cell viability percentage in relation to control, Caco-2; for SI Caco-2 (selectivity index, cancer versus non-cancer cell line NHDF): Caco-2 versus NHDF, 72 h. The procedure:
as §1, §2, §3

The test system of the next data set is Caco-2 cells. Description: Cell cycle distribution by PI staining and flow cytometry. Format: cell-based, human. The procedure:
After excluding sub-G1 events, we proceeded to evaluate the impact of dyes 5 and 10 on cell cycle distribution.
Apoptosis (sub-G1 events) and cell cycle distribution were evaluated by propidium iodide (PI) staining and flow cytometry, as described by Riccardi and Nicolleti. After 48 h of Caco-2 cells (2 mL; 3 × 10^4 cells/mL) adherence in 6-well plates, the culture medium was substituted with the test solutions (3 mL and 5 mL for negative control) and incubated for a further 72 or 120 h. Untreated cells were used as the negative control, and sorbitol and 5-FU were used as positive controls. After incubation, the supernatant was collected in a centrifuge tube, cells were washed with PBS, trypsinized and wells were once again washed with PBS. This cell suspension was maintained on ice, centrifugated at 300 g for 5 min, and then the pellet was resuspended in 0.5 mL of PBS. Cells were fixed by adding 4.5 mL of 70% ethanol cooled at −20 °C on ice and were stored at −20 °C for a period ranging from one to a few days. On the day of flow cytometry analysis, PBS was added to the fixed cell tubes, followed by centrifugation and removal of the supernatant. The pellet was resuspended in 0.5 mL of PBS and 0.5 mL of DNA extraction solution (192 mL of 0.2 M sodium phosphate and 8 mL of 0.1% Triton X-100, pH 7.8). After incubation for 5 min, the cells were once again centrifuged, the supernatant was removed, and the pellet was resuspended in 0.3 mL of staining solution (20 µg/mL of PI and 0.2 mg/mL of DNase-free RNase in PBS). Using a FACSCalibur flow cytometer (Becton Dickinson, Franklin Lakes, NJ, USA) with a 488 nm laser line, a minimum of 20,000 events were acquired and recorded using the BD CellQuestTM Pro 4.0.2 software, and analyzed with FlowJo 10.5.3 software. To exclude debris and necrotic cells, events with a lower diameter (forward scatter; FCS) and PI fluorescence (FL3) than the hypodiploid apoptotic cells were eliminated (Figures S1 and S2). Two independent experiments were performed. A Student’s t-test was performed to evaluate the statistical significance of the results.
(In general: A flow cytometer gives signals particle by particle.)

Where [6] appears, read: read-out: IC50 PC-3, PC-3, 72 h incubation, MTT.
Setting [7] is: Caco-2, SI Caco-2 (selectivity index, cancer versus non-cancer cell line NHDF), Caco-2 versus NHDF, 72 h.

What is called IC50 is the point on the concentration scale where inhibition reaches its midpoint. A word on the viability: it is the share of living cells, or the viability signal relative to a control. Take `O=c1[nH]cc(F)c(=O)[nH]1` [5-FU, 5-fluorouracil, reference compound]: the half-maximal inhibitory concentration (IC50) in data set [1] (read-out: IC50 PC-3) stood at 2430 nM. Further, in data set [1], the viability at 10 µM was 20.5 ± 2.3% and the “SI PC-3 (selectivity index versus NHDF)” value worked out at 1.9. Further, the viability at 72 h, 10 µM in data set [2] is 10.5 ± 0.74%. Also, the IC50 in data set [3] stood at 4530 nM. Moreover, the selectivity ratio at 72 h in data set [4] (Caco-2) was 4.1. For the same compound, in data set [5], the IC50 came out at 1110 nM and the viability at 10 µM is 30.1 ± 1.24%. Further, in the data set on Caco-2 cells (Caco-2, 10 µM, 72 h), the “proportion of cells in G0/G1 phase” value is recorded as 10.1% and the “proportion of cells in S phase” value is given as “around 80.3%”.

Regarding `CN1C(=Cc2oc3ccccc3[n+]2C)C=Cc2ccccc21.Cc1ccc(S(=O)(=O)[O-])cc1` [Dye 5, 3-Methyl-2-((1-methylquinolin-2(1H)-ylidene)methyl)benzo[d]oxazol-3-ium 4-methylbenzenesulfonate], the half-maximal inhibitory concentration (IC50) in data set [1] (setting [6]) was determined as 1430 nM; in data set [3] it was 2790 nM; in data set [5], 10 nM. Further, the viability at 10 µM in data set [1] worked out at 3.47 ± 0.95%; in data set [5] it was 5.05 ± 0.19%. Besides, the “SI PC-3 (selectivity index versus NHDF)” value in data set [1] was 1.9. Further, the viability at 72 h, 10 µM in data set [2] was found to be 15.4 ± 1.82%. In addition, in data set [4] (setting [7]), the selectivity ratio at 72 h is 278. Also, the “SI Caco-2 (selectivity index, cancer versus non-cancer cell line NHDF)” value in data set [5] was determined as 278.3. Further, in the data set with Caco-2 cells (Caco-2, 1 µM, 72 and 120 h), the “effect on cell cycle distribution” value is on record as “did not significantly alter the cell cycle distribution”.

In the case of `CCN1C(=Cc2sc3cc([N+](=O)[O-])ccc3[n+]2CC)Sc2ccccc21.Cc1ccc(S(=O)(=O)[O-])cc1` [Dye 10, 3-Ethyl-2-((3-ethylbenzo[d]thiazol-2(3H)-ylidene)methyl)-6-nitrobenzo[d]thiazol-3-ium 4-methylbenzenesulfonate], the IC50 in data set [1] (setting [6]) came to 5930 nM. Also, in data set [1], the viability at 10 µM turned out to be 14.4 ± 1.6% and the “SI PC-3 (selectivity index versus NHDF)” value is listed as 3.8. In addition, in data set [2], the viability at 72 h, 10 µM worked out at 34.3 ± 1.99%. For the same compound, the half-maximal inhibitory concentration (IC50) in data set [3] amounted to 22400 nM. In addition, the selectivity ratio at 72 h in data set [4] (setting [7]) worked out at 151. For the same compound, in data set [5], the “SI Caco-2 (selectivity index, cancer versus non-cancer cell line NHDF)” value was 151.4; the half-inhibitory concentration (IC50) was 140 nM; the viability at 10 µM stood at 18.6 ± 0.65%. Further, in the data set on Caco-2 cells (Caco-2, 10 µM, 72 h), the “proportion of cells in G0/G1 phase” value is listed as “approximately 62.0%” and the “proportion of cells in G2/M phase” value was 6.6%.

Source of the values: paper PMC11642940, “A New Demand for Improved Selectivity and Potency of Cyanine Dyes as Antiproliferative Agents Against Colorectal Cancer Cells” (Molecules, 2024).
